# Test results reported in patent publication US10098909B2 (UNIVERSITY OF SOUTH FLORIDA, priority 2016, dated 2018).
# B1: BDNF: brain derived neurotrophic factor, a potent modulator of learning and memory, synaptic plasticity and neurogenesis (protein, UniProt P23560 19-247, looked up)
# Neurotrophic factor BDNF …: APMKEANIRGQGGLAYPGVRTHGTLESVNGPKAGSRGLTSLADTFEHVIEELLDEDQKVRPNEENNKDADLYTSRVMLSSQVPLEPPLLFLLEEYKNYLDAANMSMRVRRHSDPARRGELSVCDSISEWVTAADKKTAVDMSGGTVTVLEKVPVSKGQLKQYFYETKCNPMGYTKEGCRGIDKRHWNSQCRTTQSYVRALTMDSKKRIGWRFIRIDTSCVCTLTIKRGR
# Tests used:
# [1] = system: Wild-type mouse neuroblastoma (N2a) cells; assay: Neuronal cell differentiation in N2a cells (β-tubulin III, phospho-synapsin I; immunofluorescence and WB); assay type: cell-based; settings: 10 mM, 24 h
# Description: These cells were then permeabilized with 0.05% Triton X-100 for 5 min, washed, and incubated with mouse anti-β-tubulin III monoclonal antibody ([…]™), and rabbit anti-phospho-synapsin I (Ser^62, Ser^67) polyclonal antibody (EMD Millipore) overnight at 4° C. Alexa Fluor® 488 Goat anti-mouse IgG (green) and Alexa Fluor® 594 Donkey anti-rabbit IgG (red, Life Technologies) were used to detect β-tubulin III and phospho-synapsin I signals respectively. Confocal images were taken by Olympus Fluoview™ FV1000 laser scanning confocal microscope (Tokyo, Japan).
# [2] = system: Human neural stem cells (H9-Derived); assay: Human neural stem cell differentiation (MAP2, GFAP; immunofluorescence and WB); assay type: cell-based; settings: 10 mM, 14 days
# Description: These cells were then permeabilized, washed, incubated with mouse anti-MAP2 monoclonal antibody or rabbit anti-GFAP polyclonal antibody overnight at 4° C., stained with Alexa Fluor® 488 (green) and Alexa Fluor® 594 (red), and visualized by confocal microscopy. DAPI (blue) was used to detect nuclear DNA.
# [3] = In vivo plasma and brain lithium pharmacokinetics after oral gavage (AAS); set-up: species or system Sprague-Dawley rats; settings: for time of plasma lithium peak: sampled at 2, 24, 48, 72 h; for plasma and brain lithium level profile after oral dosing: summary of FIG. 2, up to 48 h
# [4] = system: GSK3β; assay: GSK3β phosphorylation in Fmr1 KO mouse embryonic fibroblasts (WB); assay type: cell-based; settings: 60 min
# Description: FIGS. 5A-5B. […] Many neurodegenerative disorders, including FXS, have been associated with enhanced GSK activity (14-16). Fmr1 KO mouse embryonic fibroblasts (Fmr1 KO MEF) have elevated levels of stimulatory GSK3β ([…]) phosphorylation compared to wild-type MEF (both cell lines kindly provided by Dr. David Nelson, Baylor College of Medicine). […] Cell lysates were then prepared and subjected to WB analysis using specific phospho-GSK3β (pGSK3β)^Tyr216, pGSK3β^Ser9 and total GSK antibodies.
# [5] = system: GSK3α; assay: GSK3α Tyr279 phosphorylation in brain homogenates of Fmr1 KO mice (WB); assay type: in vivo, mouse; settings: 28 mg/kg/day i.p., 5 days
# Description: (§1) (6A) Mouse brain homogenates were then prepared from cerebral cortex and hippocampus and analyzed by WB with specific pGSK3α^Tyr279, pGSK3β^Tyr216 and total GSK antibodies.
# [6] = system: GSK3β; assay: GSK3β Tyr216 phosphorylation in brain homogenates of Fmr1 KO mice (WB); assay type: in vivo, mouse; settings: 28 mg/kg/day i.p., 5 days
# Description: as §1
# [7] = system: Fmr1 KO mice; settings: dfmr1 mutant Drosophila and Fmr1 KO mice; cited from earlier work
# [8] = system: Fmr1 KO mice; settings: cited from earlier work
# [9] = male rats, 4 mEq/kg lithium, oral gavage
molecule,measurement,setting,value
"O=C(O)[C@@H]1CCCN1 [1-proline, L-proline]",neuronal cell differentiation (β-tubulin III and phospho-synapsin I immunofluorescence and WB) vs PBS,[1],no significant difference
same,"GFAP expression (gliogenesis; immunofluorescence and WB, GFAP to β-actin) vs PBS",[2],no significance difference
same,"MAP2 expression (immunofluorescence and WB, MAP2 to β-actin) vs PBS",[2],no significance difference
O=C(O)[C@@H]1CCCN1.O=C([O-])c1ccccc1O.[Li+] [LISPRO],plasma lithium level at 2 h,"[3]; male rats, 4 mEq/kg lithium, oral gavage, 2 h",elevated
same,plasma lithium level at 48 h,[3]; [9],remained elevated
same,plasma lithium level at 72 h,"[3]; male rats, 4 mEq/kg lithium, oral gavage, 72 h",almost undetectable
same,brain lithium levels at 24 and 48 h,"[3]; male rats, 4 mEq/kg lithium, oral gavage, brain, 24 and 48 h",steady brain levels
same,time of plasma lithium peak,[3]; [9],24 h
same,plasma and brain lithium level profile after oral dosing,[3],nearly steady levels of lithium in plasma and brain for up to 48 h without the initial spike
same,stimulatory pGSK3β Tyr216 level,"[4]; Fmr1 KO MEF, 40 μM",decreased
same,total GSK3β level,"[4]; Fmr1 KO MEF, 10, 20 or 40 μM",unchanged
same,inhibitory pGSK3β Ser9 level,"[4]; Fmr1 KO MEF, starting at 10 μM",increased
same,pGSK3α Tyr279 level in cerebral cortex and hippocampus,[5],reduced these levels
same,pGSK3β Tyr216 level in cerebral cortex and hippocampus,[6],reduced these levels
"O=C([O-])[O-].[Li+].[Li+] [Li2CO3, lithium carbonate]",plasma lithium level at 48 h,[3]; [9],nearly undetectable
same,brain lithium level at 24 h,"[3]; male rats, 4 mEq/kg lithium, oral gavage, brain, 24 h",concomitant spike
same,time of plasma lithium peak,[3]; [9],24 h
same,plasma and brain lithium level profile after oral dosing,[3],spike in plasma and brain lithium levels at 24 h with considerably lower or undetectable levels at 48 h
same,neuronal cell differentiation (β-tubulin III and phospho-synapsin I immunofluorescence and WB) vs PBS,[1],no significant difference
same,"GFAP expression (gliogenesis; immunofluorescence and WB, GFAP to β-actin) vs PBS",[2],no significance difference
same,"MAP2 expression (immunofluorescence and WB, MAP2 to β-actin) vs PBS",[2],no significance difference
[Cl-].[Li+] [LiCl],neuronal cell differentiation (β-tubulin III and phospho-synapsin I immunofluorescence and WB) vs PBS,[1],no significant difference
same,"GFAP expression (gliogenesis; immunofluorescence and WB, GFAP to β-actin) vs PBS",[2],no significance difference
same,"MAP2 expression (immunofluorescence and WB, MAP2 to β-actin) vs PBS",[2],no significance difference
Cn1cc(C2=C(c3ccc(Cl)cc3Cl)C(=O)NC2=O)c2ccccc21 [SB-216763],"FXS behavioral phenotypes (hyperactivity, social and cognitive impairment)",[7],reverse these behavioral deficits
Cn1sc(=O)n(Cc2ccccc2)c1=O [TDZD-8],"FXS behavioral phenotypes (hyperactivity, social and cognitive impairment)",[7],reverse these behavioral deficits
B1,impairment in hippocampal long term potentiation,[8],fully restored
